Reference: patent US12077503B2, “Substituted cyclic amides and their use as herbicides” (FMC CORPORATION, priority 2015, dated 2024)

What was measured:
Format in all cases: in vivo
[1] = system: giant foxtail (Setaria faberii); assay: Test A postemergence; details: Setaria faberi, post-emergence, 240 h; for pest or weed control at 125 g/ha: 125 g ai/ha, postemergence, visual injury on 0 to 100 scale (0 no effect, 100 complete control), approx. 10 d, read-out: Foxtail, Giant plant response rating; for pest or weed control at 31 g/ha: Postemergence, 31 g ai/ha, visual injury after approx. 10 d, 0 to 100 scale, 0 no effect, 100 complete control, read-out: Plant response rating, Foxtail, Giant
Summary of the method: (§1)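 Compounds were formulated in a non-phytotoxic solvent mixture with surfactant and applied as a preemergence directed soil spray after seeding, or sprayed postemergence over plants 2 to 10 cm tall at the one- to two-leaf stage. Evaluation after about 10 d compared treated with untreated controls, using a scale from 0 (no effect) to 100 (complete control).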

Kochia (Kochia scoparia) [2] = assay: Test A postemergence; details: Bassia scoparia, post-emergence, 240 h; for pest or weed control at 125 g/ha: 125 g ai/ha, postemergence, visual injury on 0 to 100 scale (0 no effect, 100 complete control), approx. 10 d, read-out: Kochia plant response rating; for pest or weed control at 31 g/ha: Postemergence, 31 g ai/ha, visual injury after approx. 10 d, 0 to 100 scale, 0 no effect, 100 complete control, read-out: Plant response rating, Kochia
Summary of the method: as §1

[3] = system: barnyardgrass (Echinochloa crus-galli); assay: Test A postemergence; details: Echinochloa crus-galli, post-emergence, 240 h; for pest or weed control at 125 g/ha: 125 g ai/ha, postemergence, visual injury on 0 to 100 scale (0 no effect, 100 complete control), approx. 10 d, read-out: Barnyardgrass plant response rating; for pest or weed control at 31 g/ha: Postemergence, 31 g ai/ha, visual injury after approx. 10 d, 0 to 100 scale, 0 no effect, 100 complete control, read-out: Plant response rating, Barnyardgrass
Summary of the method: as §1

[4] = system: blackgrass (Alopecurus myosuroides); assay: Test A postemergence; details: Alopecurus myosuroides, post-emergence, 240 h; for pest or weed control at 125 g/ha: 125 g ai/ha, postemergence, visual injury on 0 to 100 scale (0 no effect, 100 complete control), approx. 10 d, read-out: Blackgrass plant response rating; for pest or weed control at 31 g/ha: Postemergence, 31 g ai/ha, visual injury after approx. 10 d, 0 to 100 scale, 0 no effect, 100 complete control, read-out: Plant response rating, Blackgrass
Summary of the method: as §1

[5] = system: Galium (catchweed bedstraw, Galium aparine); assay: Test A postemergence; details: Galium, post-emergence, 240 h; for pest or weed control at 125 g/ha: 125 g ai/ha, postemergence, visual injury on 0 to 100 scale (0 no effect, 100 complete control), approx. 10 d, read-out: Galium plant response rating; for pest or weed control at 31 g/ha: Postemergence, 31 g ai/ha, visual injury after approx. 10 d, 0 to 100 scale, 0 no effect, 100 complete control, read-out: Plant response rating, Galium
Summary of the method: as §1

corn (Zea mays) = assay: Test A postemergence; details: Zea mays, post-emergence, 240 h; for plant injury at 125 g/ha: 125 g ai/ha, postemergence, visual injury on 0 to 100 scale (0 no effect, 100 complete control), approx. 10 d, read-out: Corn plant response rating; for Corn plant response rating (crop injury, 0 = no effect, 100 = complete kill) at 31 g/ha: Postemergence, 31 g ai/ha, visual injury after approx. 10 d, 0 to 100 scale, 100 complete control
Summary of the method: as §1

[6] = system: ragweed (common ragweed, Ambrosia elatior); assay: Test A postemergence; details: Ambrosia artemisiifolia, post-emergence, 240 h; for pest or weed control at 125 g/ha: 125 g ai/ha, postemergence, visual injury vs untreated controls after approx. 10 d, 0 = no effect, 100 = complete control, read-out: Ragweed plant response rating (0 to 100 scale); for pest or weed control at 31 g/ha: Postemergence, 31 g ai/ha, visual injury after approx. 10 d, 0 to 100 scale, 0 no effect, 100 complete control, read-out: Plant response rating, Ragweed
Summary of the method: as §1

[7] = system: pigweed (Amaranthus retroflexus); assay: Test A postemergence; details: Amaranthus retroflexus, post-emergence, 240 h; for pest or weed control at 125 g/ha: 125 g ai/ha, postemergence, visual injury vs untreated controls after approx. 10 d, 0 = no effect, 100 = complete control, read-out: Pigweed plant response rating (0 to 100 scale); for pest or weed control at 31 g/ha: Postemergence, 31 g ai/ha, visual injury after approx. 10 d, 0 to 100 scale, 0 no effect, 100 complete control, read-out: Plant response rating, Pigweed
Summary of the method: as §1

[8] = system: wheat (Triticum aestivum); assay: Test A postemergence; details: Triticum aestivum, post-emergence, 240 h; for plant injury at 125 g/ha: 125 g ai/ha, postemergence, visual injury vs untreated controls after approx. 10 d, 0 = no effect, 100 = complete control, read-out: Wheat plant response rating (0 to 100 scale); for plant injury at 31 g/ha: Postemergence, 31 g ai/ha, visual injury after approx. 10 d, 0 to 100 scale, 0 no effect, 100 complete control, read-out: Plant response rating, Wheat
Summary of the method: as §1

[9] = system: ryegrass, Italian (Italian ryegrass, Lolium multiflorum); assay: Test A postemergence; details: Lolium multiflorum, post-emergence, 240 h; for pest or weed control at 125 g/ha: 125 g ai/ha, postemergence, visual injury vs untreated controls after approx. 10 d, 0 = no effect, 100 = complete control, read-out: Ryegrass, Italian plant response rating (0 to 100 scale); for pest or weed control at 31 g/ha: Postemergence, 31 g ai/ha, visual injury after approx. 10 d, 0 to 100 scale, 0 no effect, 100 complete control, read-out: Plant response rating, Ryegrass, Italian
Summary of the method: as §1

[10] = system: barnyardgrass (Echinochloa crus-galli); assay: Test B flooded paddy test; details: Echinochloa crus-galli, 250 g ai/ha, Flood; 0 to 100 scale where 0 is no effect and 100 is complete control; read-out: Barnyardgrass plant response rating
Summary of the method: (§2)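 Flooding to 3 cm over soil accompanied treatment, which consisted of adding compound to the standing water around 2-leaf plants; depth was then maintained. Visual assessment versus controls followed at 13 to 15 d (scale 0–100, 0 meaning no effect).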

rice (Oryra sativa) = assay: Test B flooded paddy test; details: Oryza sativa, 250 g ai/ha, Flood; 0 to 100 scale where 0 is no effect and 100 is complete control; read-out: Rice plant response rating
Summary of the method: as §2

[11] = system: ducksalad (Heteranthera limosa); assay: Test B flooded paddy test; details: Heteranthera limosa, 250 g ai/ha, Flood; 0 to 100 scale where 0 is no effect and 100 is complete control; read-out: Ducksalad plant response rating
Summary of the method: as §2

[12] = system: sedge, umbrella (small-flower umbrella sedge, Cyperus difformis); assay: Test B flooded paddy test; details: Cyperus difformis, 250 g ai/ha, Flood; 0 to 100 scale where 0 is no effect and 100 is complete control; read-out: Sedge, Umbrella plant response rating
Summary of the method: as §2

[13] = system: giant foxtail (Setaria faberii); assay: Test A preemergence; details: Setaria faberi, pre-emergence, 240 h, 0 to 100 scale where 0 is no effect and 100 is complete control, read-out: Foxtail, Giant plant response rating; for pest or weed control at 31 g/ha: 31 g ai/ha, Preemergence; for pest or weed control at 125 g/ha: 125 g ai/ha, preemergence, approx. 10 d
Summary of the method: as §1

Kochia (Kochia scoparia) [14] = assay: Test A preemergence; details: Bassia scoparia, pre-emergence, 240 h, 0 to 100 scale where 0 is no effect and 100 is complete control, read-out: Kochia plant response rating; for pest or weed control at 31 g/ha: 31 g ai/ha, Preemergence; for pest or weed control at 125 g/ha: 125 g ai/ha, preemergence, approx. 10 d
Summary of the method: as §1

[15] = system: barnyardgrass (Echinochloa crus-galli); assay: Test A preemergence; details: Echinochloa crus-galli, pre-emergence, 240 h, 0 to 100 scale where 0 is no effect and 100 is complete control, read-out: Barnyardgrass plant response rating; for pest or weed control at 31 g/ha: 31 g ai/ha, Preemergence; for pest or weed control at 125 g/ha: 125 g ai/ha, preemergence, approx. 10 d
Summary of the method: as §1

[16] = system: ragweed (common ragweed, Ambrosia elatior); assay: Test A preemergence; details: Ambrosia artemisiifolia, pre-emergence, 240 h, 0 to 100 scale where 0 is no effect and 100 is complete control, read-out: Ragweed plant response rating; for pest or weed control at 31 g/ha: 31 g ai/ha, Preemergence; for pest or weed control at 125 g/ha: 125 g ai/ha, preemergence, approx. 10 d
Summary of the method: as §1

[17] = system: pigweed (Amaranthus retroflexus); assay: Test A preemergence; details: Amaranthus retroflexus, pre-emergence, 240 h, 0 to 100 scale where 0 is no effect and 100 is complete control, read-out: Pigweed plant response rating; for pest or weed control at 31 g/ha: 31 g ai/ha, Preemergence; for pest or weed control at 125 g/ha: 125 g ai/ha, preemergence, approx. 10 d
[18] = system: ryegrass, Italian (Italian ryegrass, Lolium multiflorum); assay: Test A preemergence; details: Lolium multiflorum, pre-emergence, 240 h, 0 to 100 scale where 0 is no effect and 100 is complete control, read-out: Ryegrass, Italian plant response rating; for pest or weed control at 31 g/ha: 31 g ai/ha, Preemergence; for pest or weed control at 125 g/ha: 125 g ai/ha, preemergence, approx. 10 d
Summary of the method: as §1

CN1CC(c2cccc(C(F)(F)F)c2)C(C(=O)Nc2ccccc2CO)C1=O (stereo not drawn) [Compound 1145]
60%: pest or weed control at 31 g/ha [3] | pest or weed control at 250 g/ha [11]
50%: pest or weed control at 31 g/ha [1] | pest or weed control at 125 g/ha [4] | plant injury at 125 g/ha (corn (Zea mays)) | pest or weed control at 125 g/ha (Kochia (Kochia scoparia) [14])
40%: plant injury at 125 g/ha [8] | pest or weed control at 250 g/ha [12]
20%: pest or weed control at 125 g/ha [9]
90%: pest or weed control at 125 g/ha [1] | pest or weed control at 31 g/ha [13] | pest or weed control at 125 g/ha [13] | pest or weed control at 125 g/ha [15]
75%: pest or weed control at 250 g/ha [10]
30%: pest or weed control at 250 g/ha (rice (Oryra sativa)) | pest or weed control at 125 g/ha [18]
0%: pest or weed control at 125 g/ha (Kochia (Kochia scoparia) [2]) | pest or weed control at 31 g/ha (Kochia (Kochia scoparia) [2]) | pest or weed control at 31 g/ha [4] | pest or weed control at 125 g/ha [5] | pest or weed control at 31 g/ha [5] | Corn plant response rating (crop injury, 0 = no effect, 100 = complete kill) at 31 g/ha (corn (Zea mays)) | pest or weed control at 125 g/ha [6] | pest or weed control at 31 g/ha [6] | pest or weed control at 125 g/ha [7] | pest or weed control at 31 g/ha [7] | plant injury at 31 g/ha [8] | pest or weed control at 31 g/ha [9] | pest or weed control at 31 g/ha (Kochia (Kochia scoparia) [14]) | pest or weed control at 31 g/ha [16] | pest or weed control at 125 g/ha [16] | pest or weed control at 31 g/ha [17] | pest or weed control at 125 g/ha [17] | pest or weed control at 31 g/ha [18]
80%: pest or weed control at 125 g/ha [3] | pest or weed control at 31 g/ha [15]

C=C(C)c1ccc([C@H]2CN(C)C(=O)[C@@H]2C(=O)Nc2cccc(F)c2F)cc1 [Compound 1149]
75%: pest or weed control at 250 g/ha [11]
90%: pest or weed control at 125 g/ha [3] | pest or weed control at 125 g/ha [13] | pest or weed control at 125 g/ha [15]
30%: pest or weed control at 125 g/ha (Kochia (Kochia scoparia) [2]) | pest or weed control at 250 g/ha (rice (Oryra sativa))
0%: pest or weed control at 31 g/ha (Kochia (Kochia scoparia) [2]) | pest or weed control at 125 g/ha [4] | pest or weed control at 31 g/ha [4] | plant injury at 125 g/ha (corn (Zea mays)) | Corn plant response rating (crop injury, 0 = no effect, 100 = complete kill) at 31 g/ha (corn (Zea mays)) | pest or weed control at 125 g/ha [6] | pest or weed control at 31 g/ha [6] | pest or weed control at 125 g/ha [7] | pest or weed control at 31 g/ha [7] | plant injury at 125 g/ha [8] | plant injury at 31 g/ha [8] | pest or weed control at 31 g/ha [9] | pest or weed control at 250 g/ha [12] | pest or weed control at 31 g/ha (Kochia (Kochia scoparia) [14]) | pest or weed control at 31 g/ha [16] | pest or weed control at 125 g/ha [16] | pest or weed control at 31 g/ha [17] | pest or weed control at 31 g/ha [18]
80%: pest or weed control at 125 g/ha [1] | pest or weed control at 31 g/ha [13]
70%: pest or weed control at 31 g/ha [15]
40%: pest or weed control at 31 g/ha [1] | pest or weed control at 125 g/ha [17]
45%: pest or weed control at 250 g/ha [10]
50%: pest or weed control at 31 g/ha [3] | pest or weed control at 125 g/ha [5]
20%: pest or weed control at 31 g/ha [5] | pest or weed control at 125 g/ha [9] | pest or weed control at 125 g/ha (Kochia (Kochia scoparia) [14]) | pest or weed control at 125 g/ha [18]
